In article PMC4770715, “LIM kinase inhibitors disrupt mitotic microtubule organization and impair tumor cell proliferation” (Oncotarget, 2015) one finds remaining binding data, which are given here for two compounds.

Holding throughout (test): biochemical
Common to all, as to set-up: KINOMEscan active-site competition binding, percent of control (100 = no competition)
What all share (conditions): competition binding, percent control

Experiment [1] addresses HIPK2 (Homo sapiens, UniProt Q9H2X6).
The target in experiment [2] is T1, QSK (Homo sapiens, UniProt Q9Y2K2).
T1 construct: gene SIK3
T1 sequence (Q9Y2K2 whole entry): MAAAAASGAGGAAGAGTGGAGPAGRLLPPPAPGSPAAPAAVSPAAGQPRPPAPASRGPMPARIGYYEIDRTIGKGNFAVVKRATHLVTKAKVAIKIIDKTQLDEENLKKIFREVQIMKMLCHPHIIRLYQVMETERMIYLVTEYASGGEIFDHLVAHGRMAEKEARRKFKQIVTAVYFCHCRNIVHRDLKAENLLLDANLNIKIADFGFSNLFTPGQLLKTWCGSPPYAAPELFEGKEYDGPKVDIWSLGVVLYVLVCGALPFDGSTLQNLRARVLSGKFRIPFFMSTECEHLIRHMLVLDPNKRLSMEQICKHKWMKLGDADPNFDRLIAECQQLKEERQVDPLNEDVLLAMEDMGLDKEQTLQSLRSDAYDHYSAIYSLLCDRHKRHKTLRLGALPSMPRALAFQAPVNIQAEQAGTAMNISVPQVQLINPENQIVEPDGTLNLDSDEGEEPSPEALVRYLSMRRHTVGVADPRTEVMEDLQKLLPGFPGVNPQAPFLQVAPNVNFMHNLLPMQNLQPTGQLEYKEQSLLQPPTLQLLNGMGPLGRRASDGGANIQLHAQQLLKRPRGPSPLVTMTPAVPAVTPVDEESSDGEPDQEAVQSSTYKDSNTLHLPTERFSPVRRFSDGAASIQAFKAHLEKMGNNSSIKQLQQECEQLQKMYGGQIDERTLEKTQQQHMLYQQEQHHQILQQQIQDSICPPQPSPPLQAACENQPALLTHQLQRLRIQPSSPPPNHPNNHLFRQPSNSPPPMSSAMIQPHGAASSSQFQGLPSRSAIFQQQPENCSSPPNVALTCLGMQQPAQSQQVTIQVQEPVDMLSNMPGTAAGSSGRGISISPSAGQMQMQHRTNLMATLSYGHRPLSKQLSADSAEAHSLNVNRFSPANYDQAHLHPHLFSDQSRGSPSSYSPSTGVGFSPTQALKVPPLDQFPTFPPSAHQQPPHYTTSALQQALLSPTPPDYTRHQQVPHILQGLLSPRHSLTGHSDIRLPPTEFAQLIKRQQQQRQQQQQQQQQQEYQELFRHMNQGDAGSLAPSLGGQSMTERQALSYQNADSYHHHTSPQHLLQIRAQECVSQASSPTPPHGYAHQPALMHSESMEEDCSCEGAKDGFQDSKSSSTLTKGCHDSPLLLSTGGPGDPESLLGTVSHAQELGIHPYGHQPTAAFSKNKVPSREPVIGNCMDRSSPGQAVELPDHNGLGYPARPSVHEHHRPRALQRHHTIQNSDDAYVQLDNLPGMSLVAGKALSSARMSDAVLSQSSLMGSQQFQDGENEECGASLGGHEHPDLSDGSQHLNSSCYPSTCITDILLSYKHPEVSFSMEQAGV

Experiment [3] deals with PRKD2 (Homo sapiens, UniProt Q9BZL6).
Chain of PRKD2 (Q9BZL6 whole entry): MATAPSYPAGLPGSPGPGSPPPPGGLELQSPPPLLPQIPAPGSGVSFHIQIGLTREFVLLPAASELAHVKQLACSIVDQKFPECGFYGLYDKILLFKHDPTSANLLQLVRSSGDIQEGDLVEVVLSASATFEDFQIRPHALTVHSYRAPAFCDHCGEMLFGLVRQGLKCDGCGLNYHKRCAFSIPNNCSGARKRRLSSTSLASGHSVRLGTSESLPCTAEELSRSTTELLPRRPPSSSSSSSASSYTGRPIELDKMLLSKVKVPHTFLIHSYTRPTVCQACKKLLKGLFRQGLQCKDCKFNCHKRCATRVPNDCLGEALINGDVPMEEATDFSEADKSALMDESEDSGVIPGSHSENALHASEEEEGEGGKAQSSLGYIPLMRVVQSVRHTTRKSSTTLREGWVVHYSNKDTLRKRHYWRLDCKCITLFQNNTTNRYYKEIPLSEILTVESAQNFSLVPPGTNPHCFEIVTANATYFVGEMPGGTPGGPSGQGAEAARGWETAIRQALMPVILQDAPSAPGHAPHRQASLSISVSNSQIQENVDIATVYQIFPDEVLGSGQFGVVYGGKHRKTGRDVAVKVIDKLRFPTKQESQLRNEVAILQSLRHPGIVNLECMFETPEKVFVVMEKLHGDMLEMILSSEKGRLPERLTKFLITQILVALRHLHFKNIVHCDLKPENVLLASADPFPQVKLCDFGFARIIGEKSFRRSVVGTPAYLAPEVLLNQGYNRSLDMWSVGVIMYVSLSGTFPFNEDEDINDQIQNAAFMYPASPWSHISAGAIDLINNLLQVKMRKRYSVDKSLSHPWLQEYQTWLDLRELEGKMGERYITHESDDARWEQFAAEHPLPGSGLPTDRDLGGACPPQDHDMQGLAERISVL
The target in experiment [4] is GSK3A (Homo sapiens, UniProt P49840).
For experiment [5], the target named is T2, ABL1(Y253F)-phosphorylated (Homo sapiens, UniProt P00519, Y253F).
T2 construct: phosphorylated

Experiment [6] has as its target CLK4 (Homo sapiens, UniProt Q9HAZ1).
The target of experiment [7] is PKN2 (Homo sapiens, UniProt Q16513).
The target in experiment [8] is T3, MLK3 (Homo sapiens, UniProt Q16584).
T3 construct: gene MAP3K11

For experiment [9], the target named is T4, TRKA (Homo sapiens, UniProt P04629).
T4 construct: gene NTRK1

Experiment [10] deals with BMPR1B (Homo sapiens, UniProt O00238).
Experiment [11] concerns the target T5, S6K1 (Homo sapiens, UniProt P23443).
T5 construct: gene RPS6KB1

The target in experiment [12] is NEK9 (Homo sapiens, UniProt Q8TD19).
The target in experiment [13] is PRKG2 (Homo sapiens, UniProt Q13237).
Chain of PRKG2 (Q13237 whole entry): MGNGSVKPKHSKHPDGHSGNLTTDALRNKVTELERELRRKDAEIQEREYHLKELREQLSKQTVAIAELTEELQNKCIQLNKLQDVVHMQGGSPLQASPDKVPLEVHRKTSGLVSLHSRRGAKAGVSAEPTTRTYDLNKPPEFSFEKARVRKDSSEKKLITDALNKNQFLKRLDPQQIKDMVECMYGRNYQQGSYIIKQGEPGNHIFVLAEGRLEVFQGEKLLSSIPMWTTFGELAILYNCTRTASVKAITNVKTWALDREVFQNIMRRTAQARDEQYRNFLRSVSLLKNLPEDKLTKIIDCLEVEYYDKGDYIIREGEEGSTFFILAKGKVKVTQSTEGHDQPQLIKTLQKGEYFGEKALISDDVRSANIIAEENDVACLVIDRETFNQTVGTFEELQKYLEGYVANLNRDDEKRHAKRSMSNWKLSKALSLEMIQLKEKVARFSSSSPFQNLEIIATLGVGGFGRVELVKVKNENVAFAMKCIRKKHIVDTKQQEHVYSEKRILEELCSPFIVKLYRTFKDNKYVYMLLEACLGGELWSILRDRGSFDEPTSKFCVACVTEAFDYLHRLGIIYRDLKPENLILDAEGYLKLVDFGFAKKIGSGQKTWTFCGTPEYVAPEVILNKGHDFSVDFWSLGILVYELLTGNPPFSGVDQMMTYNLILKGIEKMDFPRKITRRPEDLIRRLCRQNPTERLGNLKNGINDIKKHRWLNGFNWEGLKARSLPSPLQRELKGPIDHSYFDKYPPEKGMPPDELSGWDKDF
Experiment [14] deals with T6, YANK2 (Homo sapiens, UniProt Q9NY57).
T6 construct: gene STK32B

The target of experiment [15] is PIK3C2G (Homo sapiens, UniProt O75747).
Experiment [16] concerns the target T7, MLK2 (Homo sapiens, UniProt Q02779).
T7 construct: gene MAP3K10

The target of experiment [17] is MYLK4 (Homo sapiens, UniProt Q86YV6).
For experiment [18], the target named is T8, PFTK1 (Homo sapiens, UniProt O94921).
T8 construct: gene CDK14
T8 sequence (O94921 whole entry): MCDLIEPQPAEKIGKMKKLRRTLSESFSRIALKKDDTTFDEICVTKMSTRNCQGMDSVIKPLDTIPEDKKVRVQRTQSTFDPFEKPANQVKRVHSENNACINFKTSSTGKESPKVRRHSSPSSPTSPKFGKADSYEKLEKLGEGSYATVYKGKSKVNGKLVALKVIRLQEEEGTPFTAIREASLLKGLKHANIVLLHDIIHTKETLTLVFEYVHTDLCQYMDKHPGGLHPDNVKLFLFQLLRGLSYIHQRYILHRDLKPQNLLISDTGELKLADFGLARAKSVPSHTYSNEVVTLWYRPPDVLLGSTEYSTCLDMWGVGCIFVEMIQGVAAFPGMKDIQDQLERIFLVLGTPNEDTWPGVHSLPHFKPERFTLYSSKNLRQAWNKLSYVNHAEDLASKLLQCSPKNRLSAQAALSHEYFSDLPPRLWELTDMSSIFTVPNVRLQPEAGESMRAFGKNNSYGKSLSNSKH

In experiment [19] the target is T9, RIPK5 (Homo sapiens, UniProt Q6XUX3).
T9 construct: gene DSTYK

Experiment [20] deals with T10, TYK2(JH1domain-catalytic) (Homo sapiens, UniProt P29597).
T10 construct: JH1domain-catalytic
T10 sequence (P29597 whole entry): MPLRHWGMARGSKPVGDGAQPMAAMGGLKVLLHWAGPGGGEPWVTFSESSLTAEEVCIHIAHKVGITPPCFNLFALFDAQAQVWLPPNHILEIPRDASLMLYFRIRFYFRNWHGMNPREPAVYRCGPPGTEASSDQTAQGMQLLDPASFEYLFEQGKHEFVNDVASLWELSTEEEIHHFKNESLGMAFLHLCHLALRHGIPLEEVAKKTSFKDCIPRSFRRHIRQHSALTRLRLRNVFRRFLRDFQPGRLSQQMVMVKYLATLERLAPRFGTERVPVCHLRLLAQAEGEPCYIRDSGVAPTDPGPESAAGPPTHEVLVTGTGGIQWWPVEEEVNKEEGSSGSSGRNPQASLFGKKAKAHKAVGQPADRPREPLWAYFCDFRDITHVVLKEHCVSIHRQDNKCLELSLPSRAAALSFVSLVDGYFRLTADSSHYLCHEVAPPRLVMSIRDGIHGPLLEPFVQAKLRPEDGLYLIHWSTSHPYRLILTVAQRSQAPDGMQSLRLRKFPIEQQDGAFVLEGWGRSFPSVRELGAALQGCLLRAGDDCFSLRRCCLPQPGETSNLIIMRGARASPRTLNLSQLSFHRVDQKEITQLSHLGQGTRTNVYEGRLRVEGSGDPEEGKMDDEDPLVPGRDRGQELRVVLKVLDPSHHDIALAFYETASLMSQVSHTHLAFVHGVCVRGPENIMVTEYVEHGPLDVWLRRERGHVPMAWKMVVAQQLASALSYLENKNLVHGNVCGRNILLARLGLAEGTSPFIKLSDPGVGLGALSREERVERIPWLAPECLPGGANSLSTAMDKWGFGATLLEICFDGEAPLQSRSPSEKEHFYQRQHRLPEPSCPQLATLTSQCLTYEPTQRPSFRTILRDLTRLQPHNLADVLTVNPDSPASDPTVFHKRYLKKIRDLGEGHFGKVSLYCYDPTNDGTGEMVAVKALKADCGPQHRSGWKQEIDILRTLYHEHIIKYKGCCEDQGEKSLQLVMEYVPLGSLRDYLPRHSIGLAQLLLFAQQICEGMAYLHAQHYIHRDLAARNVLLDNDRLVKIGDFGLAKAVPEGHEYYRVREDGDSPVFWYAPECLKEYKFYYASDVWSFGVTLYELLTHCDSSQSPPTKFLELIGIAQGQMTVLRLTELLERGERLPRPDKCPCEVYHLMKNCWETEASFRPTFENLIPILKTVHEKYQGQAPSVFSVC

The target in experiment [21] is ACVRL1 (Homo sapiens, UniProt P37023).
Experiment [22] concerns the target TGFBR2 (Homo sapiens, UniProt P37173).
In experiment [23] the target is PLK4 (Homo sapiens, UniProt O00444).

SMILES strings stand for the structures.

Chain of CLK4 (Q9HAZ1 whole entry): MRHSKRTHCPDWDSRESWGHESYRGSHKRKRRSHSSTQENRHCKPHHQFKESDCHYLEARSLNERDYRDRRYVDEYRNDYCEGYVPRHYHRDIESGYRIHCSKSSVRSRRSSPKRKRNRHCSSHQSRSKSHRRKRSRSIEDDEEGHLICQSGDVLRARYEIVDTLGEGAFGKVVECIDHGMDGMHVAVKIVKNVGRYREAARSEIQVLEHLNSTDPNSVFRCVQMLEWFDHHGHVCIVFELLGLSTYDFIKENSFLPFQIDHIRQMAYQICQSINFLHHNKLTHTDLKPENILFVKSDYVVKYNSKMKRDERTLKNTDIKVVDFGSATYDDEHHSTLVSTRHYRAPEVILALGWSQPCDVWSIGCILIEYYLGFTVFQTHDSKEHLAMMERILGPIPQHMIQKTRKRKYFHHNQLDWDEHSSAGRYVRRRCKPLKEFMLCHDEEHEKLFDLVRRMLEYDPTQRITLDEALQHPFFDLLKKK

As to `COc1ccc(-c2cnccc2-c2cnc(NC(=O)C(C)C)s2)c(C(F)(F)F)c1` [CRT0105446, N-{5-[3-(4-Methoxy-2-trifluoromethyl-phenyl)-pyridin-4-yl]-hiazol-2-yl}-isobutyramide], the remaining binding at 10 µM came to 92% in experiment [1]; 100% in experiment [2]; 74% in experiment [3]; 56% in [4]; 89% in experiment [5]; 100% in experiment [6]. For the same compound, the remaining binding at 10 µM in experiment [7] came out at 96%; in experiment [8], 100%; in experiment [9], 70%; in experiment [10] it was 92%; in experiment [11], 78%; in experiment [12], 92%. The remaining binding at 10 µM is 100% in [13]; 100% in [14]; 100% in experiment [15]; 69% in [16]; 71% in experiment [17]; 51% in experiment [18]. The remaining binding at 10 µM in experiment [19] is 86%; in [20] it was 72%; in [21], 100%; in [22], 94%; in experiment [23] it was 89%.

For the compound `Cc1ccc(-c2cnccc2-c2cnc(Nc3ccc(O)cc3)s2)c(Cl)c1` [CRT0105950, 4-{5-[3-(2-Chloro-4-methyl-phenyl)-pyridin-4-yl]-thiazol-2-ylamino}-phenol], the remaining binding at 10 µM was 55% in [1]; 72% in experiment [2]; 26% in [3]; 32% in experiment [4]; 74% in experiment [5]; 1.6% in [6]. Besides, the remaining binding at 10 µM in [7] worked out at 26%; in experiment [8], 43%; in experiment [9], 1%; in experiment [10] it was 29%; in [11] it was 41%; in [12], 96%. Besides, the remaining binding at 10 µM is 73% in experiment [13]; 100% in [14]; 95% in [15]; 40% in experiment [16]; 9.4% in [17]; 47% in experiment [18]. In addition, the remaining binding at 10 µM in [19] came to 45%; in [20], 25%; in [21], 100%; in experiment [22] it was 18%; in [23], 43%.
